Data as given in patent EP4603105A1, “PHARMACEUTICAL COMPOSITION CONTAINING CYCLIC COMPOUND HAVING SELECTIVE KRAS INHIBITORY EFFECT AGAINST HRAS AND NRAS” (CHUGAI SEIYAKU KABUSHIKI KAISHA, priority 2022, dated 2024).
Where a SMILES comes first, the peptide text is derived from it. Bridges are numbered along the chain shown (N, C = ends). [ ]: non-standard residue; d: D form. The star is where a group is joined. hPhe(3-Cl-4-CF3) = N[C@@H](CCc1ccc(C(F)(F)F)c(Cl)c1)C(=O)O; NPrPhe(4-CF3) = CCCN[C@@H](Cc1ccc(C(F)(F)F)cc1)C(=O)O; NEtPhe(4-CF3) = CCN[C@@H](Cc1ccc(C(F)(F)F)cc1)C(=O)O; NMeGly(cPent) = CN[C@H](C(=O)O)C1CCCC1; Pro(4,4-F2) = O=C(O)[C@@H]1CC(F)(F)CN1; Piperidide(4-Me) = CC1CCN(*)CC1; NMeD = CN[C@@H](CC(=O)O)C(=O)O; NMeL = CN[C@@H](CC(C)C)C(=O)O; NMeNva = CCC[C@H](NC)C(=O)O; Morpholide = C1CN(*)CCO1; NMeA = CN[C@@H](C)C(=O)O; Ac5c = NC1(C(=O)O)CCCC1; Aze = O=C(O)[C@@H]1CCN1; Ac4c = NC1(C(=O)O)CCC1; Aib = CC(C)(N)C(=O)O; Sar = CNCC(=O)O

Columns and labels:
[1] = target: GDP-bound NRAS wild-type protein (Homo sapiens, UniProt P01111); test: Binding to NRAS by surface plasmon resonance (SPR), KD and KD ratio to KRAS
Method in brief: (§1)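 Each cycle, GDP-bound biotin-Avi RAS was captured (~100–300 RU), compound concentrations were injected low to high for 75 s each at 100 µL/min, then the chip was regenerated. Buffer: HBS pH 7.4, 10 mM MgCl2, 10 µM GDP, 1 mM DTT, 4% DMSO; 30°C. KD from a 1:1 binding model.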

HRAS wild-type protein = HRAS wild-type protein (Homo sapiens, UniProt P01112); test: Binding to HRAS by surface plasmon resonance (SPR), KD and KD ratio to KRAS
Method in brief: as §1

[2] = system: human lung cancer strain NCI-H441; format: cell-based
Method in brief: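 Signal came from […] measured per well once the reagent was added. Beforehand, cells were cultured at 37°C and 5% carbon dioxide on a compound series serially diluted in dimethyl sulfoxide.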

[3] = ratio of the KD value with respect to GDP-bound NRAS wild-type protein to the KD value with respect to KRAS
[4] = ratio of the KD value with respect to HRAS wild-type protein to the KD value with respect to KRAS
[5] = ratio of KD for GDP-bound NRAS wild-type protein to KD for KRAS
[6] = ratio of KD for HRAS wild-type protein to KD for KRAS
[7] = ratio of KD value for GDP-bound NRAS wild-type protein to KD value for KRAS (SPR)
[8] = ratio of KD value for HRAS wild-type protein to KD value for KRAS (SPR)

HRAS wild-type protein, sequence (P01112 whole entry): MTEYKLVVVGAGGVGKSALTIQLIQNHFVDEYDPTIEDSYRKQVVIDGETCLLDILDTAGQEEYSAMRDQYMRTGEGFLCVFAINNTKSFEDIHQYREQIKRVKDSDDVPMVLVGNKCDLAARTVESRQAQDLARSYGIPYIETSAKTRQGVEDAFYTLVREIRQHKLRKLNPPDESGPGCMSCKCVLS
GDP-bound NRAS wild-type protein, sequence (P01111 whole entry): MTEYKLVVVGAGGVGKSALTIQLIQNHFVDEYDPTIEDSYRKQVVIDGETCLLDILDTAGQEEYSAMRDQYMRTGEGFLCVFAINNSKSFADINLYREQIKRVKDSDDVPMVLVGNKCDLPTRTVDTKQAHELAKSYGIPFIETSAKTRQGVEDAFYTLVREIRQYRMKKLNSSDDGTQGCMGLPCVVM

SMILES | NRAS /KRAS [1, 3] | HRAS /KRAS (HRAS wild-type protein; [4]) | IC50 [2] | NRAS /KRAS [1, 5] | HRAS /KRAS (HRAS wild-type protein; [6]) | NRAS /KRAS [1, 7] | HRAS /KRAS (HRAS wild-type protein; [8])
CCO[C@@H]1C[C@H]2C(=O)NC3(CC(C)(C)C3)C(=O)N(C)[C@@H](C3CCCC3)C(=O)N(C)[C@H](C(=O)N(C)CC)CC(=O)N(C)[C@@H](CC(C)C)C(=O)N[C@@H]([C@@H](C)CC)C(=O)N(C)CC(=O)N(C)[C@H]3C/C=C\CCN(C3=O)[C@@H](Cc3ccc(C(F)F)cc3)C(=O)N(C)CC(=O)N[C@@H](CCc3cc(F)c(C(F)(F)F)c(F)c3)C(=O)N2C1 [PP2046] | A (a compound having 10 or more and less than 20 is denoted as A) | A (a compound having 10 or more and less than 20 is denoted as A) | 2.2 nM |  |  |  | 
CCCN1C(=O)[C@@H]2CCN2C(=O)[C@H](C)N(C)C(=O)[C@H]([C@@H](C)CC)NC(=O)[C@H](CC(C)C)N(C)C(=O)C[C@@H](C(=O)N2CCC(C)CC2)N(C)C(=O)[C@H](C2CCCC2)N(C)C(=O)C2(CCCC2)NC(=O)[C@@H]2CCCN2C(=O)[C@H](CCc2ccc(C(F)(F)F)c(Cl)c2)NC(=O)CN(C)C(=O)[C@@H]1Cc1ccc(C(F)(F)F)cc1 [PP0185] ([NMeL]I[NMeA][Aze][NPrPhe(4-CF3)][Sar][hPhe(3-Cl-4-CF3)]P[Ac5c][NMeGly(cPent)][NMeD]-{Piperidide(4-Me)}; lactam N-11) |  |  | 32.2 nM | C (A compound having a KD ratio of 0.1 or more and less than 3 is denoted as C) | B (a compound having 3 or more and less than 10 is denoted as B) |  | 
CCC[C@H]1C(=O)N[C@@H]([C@@H](C)CC)C(=O)N(C)CC(=O)N(C)[C@H]2C/C=C\CCN(C2=O)[C@@H](Cc2ccc(C(F)(F)F)cc2)C(=O)N(C)CC(=O)N[C@@H](CCc2cc(Cl)c(C(F)(F)F)c(Cl)c2)C(=O)N2C[C@H](OCC)C[C@H]2C(=O)NC2(CC(C)(C)C2)C(=O)N(C)[C@@H](C2CCCC2)C(=O)N(C)[C@H](C(=O)N(C)C)CC(=O)N1C [PP2859] |  |  | 6.8 nM | A (a compound having 10 or more and less than 20 is denoted as A) | A (a compound having 10 or more and less than 20 is denoted as A) |  | 
CC[C@H](C)[C@@H]1NC(=O)[C@H](CC(C)C)N(C)C(=O)C[C@@H](C(=O)N2CCOCC2)N(C)C(=O)[C@H](C2CCCC2)N(C)C(=O)C(C)(C)NC(=O)[C@@H]2CCCN2C(=O)[C@H](CCc2ccc(C(F)(F)F)c(Cl)c2)NC(=O)CN(C)C(=O)[C@H](Cc2ccc(C(F)(F)F)cc2)N(CC)C(=O)[C@@H]2CCN2C(=O)[C@H](C)N(C)C1=O [PP0221] ([NMeL]I[NMeA][Aze][NEtPhe(4-CF3)][Sar][hPhe(3-Cl-4-CF3)]P[Aib][NMeGly(cPent)][NMeD]-Morpholide; lactam N-11) |  |  | 2.9 nM | C (A compound having a KD ratio of 0.1 or more and less than 3 is denoted as C) | C (A compound having a KD ratio of 0.1 or more and less than 3 is denoted as C) |  | 
CC[C@H](C)[C@@H]1NC(=O)[C@H](CC)N(C)C(=O)C[C@@H](C(=O)N(C)C)N(C)C(=O)[C@H](C2CCCC2)N(C)C(=O)C2(CCC2)N(C)C(=O)[C@@H]2CCCN2C(=O)[C@H](CCc2cc(F)c(C(F)(F)F)c(F)c2)NC(=O)CN(C)C(=O)[C@H](Cc2ccc(C)cc2)N2CC/C=C\C[C@@H](C2=O)N(C)C(=O)[C@@H]2CCCN2C1=O [PP1786] |  |  | 11.4 nM |  |  | A (a compound having 10 or more and less than 20 is denoted as A) | B (a compound having 3 or more and less than 10 is denoted as B)
CCC[C@H]1C(=O)N[C@@H]([C@@H](C)CC)C(=O)N(C2CC2)CC(=O)N(C)[C@H]2C/C=C\CCN(C2=O)[C@@H](Cc2ccc(C(F)(F)F)cc2)C(=O)N(C)CC(=O)N[C@@H](CCc2cc(F)c(C(F)(F)F)c(F)c2)C(=O)N2C[C@H](OCC)C[C@H]2C(=O)NC2(CC(C)(C)C2)C(=O)N(C)[C@@H](CC2CC2)C(=O)N(C)[C@H](C(=O)N(C)C)CC(=O)N1C [PP2813] |  |  | 86 nM | AA (a compound having 20 or more is denoted as AA) | A (a compound having 10 or more and less than 20 is denoted as A) |  | 
CCC[C@@H]1C[C@H]2C(=O)NC3(CCCC3)C(=O)N(C)[C@@H](C3CCCC3)C(=O)N(C)[C@H](C(=O)N(C)CC)CC(=O)N(C)[C@@H](C)C(=O)N[C@@H]([C@@H](C)CC)C(=O)N(C)CC(=O)N(C)[C@H]3C/C=C\CCN(C3=O)[C@@H](Cc3ccc(C(F)(F)F)cc3)C(=O)N(C)CC(=O)N[C@@H](CCc3cc(F)c(C(F)(F)F)c(F)c3)C(=O)N2C1 [PP2272] | AA (a compound having 20 or more is denoted as AA) | A (a compound having 10 or more and less than 20 is denoted as A) | 106 nM |  |  |  | 
CCO[C@@H]1C[C@H]2C(=O)NC3(CCC3)C(=O)N(C)[C@@H](C3CCCC3)C(=O)N(C)[C@H](C)CC(=O)N(C)[C@@H](CC3CC3)C(=O)N[C@@H]([C@@H](C)CC)C(=O)N(C)CC(=O)N(C)[C@H]3C/C=C\CCN(C3=O)[C@@H](Cc3ccc(F)cc3)C(=O)N(C)CC(=O)N[C@@H](CCc3cc(F)c(C(F)(F)F)c(F)c3)C(=O)N2C1 [PP1490] |  |  | 48.9 nM |  |  | B (a compound having 3 or more and less than 10 is denoted as B) | B (a compound having 3 or more and less than 10 is denoted as B)
CCC[C@H]1C(=O)N[C@@H]([C@@H](C)CC)C(=O)N(C)CC(=O)N(C)[C@H]2C/C=C\CCN(C2=O)[C@@H](Cc2ccc(C(F)(F)F)cc2)C(=O)N(C)CC(=O)N[C@@H](CCc2cc(F)c(C(F)(F)F)c(F)c2)C(=O)N2C[C@H](F)C[C@H]2C(=O)NC2(CC(C)(C)C2)C(=O)N(C)[C@@H](C2CCCC2)C(=O)N(C)[C@H](C(=O)N(C)C)CC(=O)N1C [PP1689] |  |  | 1.4 nM |  |  | A (a compound having 10 or more and less than 20 is denoted as A) | B (a compound having 3 or more and less than 10 is denoted as B)
CCO[C@@H]1C[C@H]2C(=O)NC3(CCC3)C(=O)N(C)[C@@H](C3CCCC3)C(=O)N(C)[C@H](C(=O)N3CCCC3)CC(=O)N(C)[C@H]3CCCCC/C=C/c4ccc(cc4)C[C@@H](C(=O)N(C)CC(=O)N[C@@H](CCc4ccc(Cl)c(Cl)c4)C(=O)N2C1)N1CC/C=C\C[C@@H](C1=O)N(C)C(=O)CN(C)C(=O)[C@H]([C@@H](C)CC)NC3=O [PP3049] |  |  | 12.6 nM | AA (a compound having 20 or more is denoted as AA) | A (a compound having 10 or more and less than 20 is denoted as A) |  | 
CCC[C@H]1C(=O)N[C@@H]([C@@H](C)CC)C(=O)N(C)CC(=O)N(C)[C@H]2C/C=C\CCN(C2=O)[C@@H](Cc2ccc(C)cc2)C(=O)N(C)CC(=O)N[C@@H](CCc2ccc3sc(C)c(C)c3c2)C(=O)N2C[C@H](OCC)C[C@H]2C(=O)NC2(CC(C)(C)C2)C(=O)N(C)[C@@H](C(CC)CC)C(=O)N(C)[C@H](C(=O)N(C)C)CC(=O)N1C [PP2902] |  |  | 56.3 nM | AA (a compound having 20 or more is denoted as AA) | A (a compound having 10 or more and less than 20 is denoted as A) |  | 
CCCN(C)C(=O)[C@@H]1CC(=O)N(C)[C@@H](CC(F)F)C(=O)N[C@@H]([C@@H](C)CC)C(=O)N(C)CC(=O)N(C)[C@H]2C/C=C\CCN(C2=O)[C@@H](Cc2ccc(C(F)(F)F)cc2)C(=O)N(C)CC(=O)N[C@@H](CCc2ccc(C(F)(F)F)c(OC)c2)C(=O)N2C[C@@H](C)C[C@H]2C(=O)NC2(CC(C)(C)C2)C(=O)N(C)[C@@H](C2CCCC2)C(=O)N1C [PP1989] | A (a compound having 10 or more and less than 20 is denoted as A) | A (a compound having 10 or more and less than 20 is denoted as A) | 11.1 nM |  |  |  | 
CCCN1C(=O)CN(C)C(=O)CNC(=O)[C@H]([C@@H](C)CC)NC(=O)[C@H](CC(C)C)N(C)C(=O)C[C@@H](C(=O)N(C)C)NC(=O)[C@H](C2CCCC2)N(C)C(=O)C2(CCC2)NC(=O)[C@@H]2CC(F)(F)CN2C(=O)[C@H](CCc2ccc(C(F)(F)F)c(Cl)c2)NC(=O)CN(C)C(=O)[C@@H]1Cc1ccc(C(F)(F)F)cc1 [PP0364] ([NMeL]IG[Sar][NPrPhe(4-CF3)][Sar][hPhe(3-Cl-4-CF3)][Pro(4,4-F2)][Ac4c][NMeGly(cPent)]D-NMe2; lactam N-11) |  |  | 103 nM | B (a compound having 3 or more and less than 10 is denoted as B) | B (a compound having 3 or more and less than 10 is denoted as B) |  | 
CCC[C@H]1C(=O)N[C@@H]([C@@H](C)CC)C(=O)N(C)[C@@H](C)C(=O)N2CC[C@H]2C(=O)N(CCC)[C@@H](Cc2ccc(C(F)(F)F)cc2)C(=O)N(C)CC(=O)N[C@@H](CCc2ccc(C(F)(F)F)c(Cl)c2)C(=O)N2CC(F)(F)C[C@H]2C(=O)NC2(CCCC2)C(=O)N(C)[C@@H](C2CCCC2)C(=O)N(C)[C@H](C(=O)N2CCOCC2)CC(=O)N1C [PP0205] ([NMeNva]I[NMeA][Aze][NPrPhe(4-CF3)][Sar][hPhe(3-Cl-4-CF3)][Pro(4,4-F2)][Ac5c][NMeGly(cPent)][NMeD]-Morpholide; lactam N-11) |  |  | 4.6 nM | C (A compound having a KD ratio of 0.1 or more and less than 3 is denoted as C) | C (A compound having a KD ratio of 0.1 or more and less than 3 is denoted as C) |  | 
CCO[C@@H]1C[C@H]2C(=O)NC3(CC(C)(C)C3)C(=O)N(C)[C@@H](C(CC)CC)C(=O)N(C)[C@H](C(=O)N3CCCC3)CC(=O)N(C)[C@@H](C)C(=O)N[C@@H]([C@@H](C)CC)C(=O)N(C)CC(=O)N(C)[C@H]3C/C=C\CCN(C3=O)[C@@H](Cc3ccc(C)cc3)C(=O)N(C)CC(=O)N[C@@H](CCc3ccc(Cl)c(Cl)c3)C(=O)N2C1 [PP2187] | AA (a compound having 20 or more is denoted as AA) | A (a compound having 10 or more and less than 20 is denoted as A) | 31.4 nM |  |  |  | 
